Assay results: US20240058240A1, “COMPOUNDS AS SELF-TANNING SUBSTANCES AND TANNING COMPOSITIONS THEREOF” (CHEMCOM S.A., priority 2020, published 2024)

Biological target: T1, OR7C1 (Homo sapiens, UniProt O76099)
T1 construct: transfected with a plasmid containing the CRE-luciferase and a plasmid containing the olfactory receptor; expressed in transfected cells; host or cells: HEK293T-RTP1A1/RTP2 (HEK293T stably expressing the chaperones RTP1A1 and RTP2)
T1 sequence (O76099 1-320): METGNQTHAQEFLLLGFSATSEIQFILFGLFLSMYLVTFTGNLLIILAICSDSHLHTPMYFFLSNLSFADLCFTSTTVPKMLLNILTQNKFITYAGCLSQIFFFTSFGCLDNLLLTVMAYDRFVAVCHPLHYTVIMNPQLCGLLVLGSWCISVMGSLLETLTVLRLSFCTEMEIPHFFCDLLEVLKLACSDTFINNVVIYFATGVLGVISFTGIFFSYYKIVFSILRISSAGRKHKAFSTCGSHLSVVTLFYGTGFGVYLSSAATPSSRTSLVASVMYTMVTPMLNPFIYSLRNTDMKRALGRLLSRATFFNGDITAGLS
Assay: Luciferase-based CRE gene reporter assay, dose-response on OR7C1
Assay type: cell-based
Settings: negative logarithm of the EC50 in Moles, semi-logarithmic dilutions from 1 mM to 316 nM on OR7C1; for EC50: read-out: -LogEC50 (average n > 3) (converted)
Method: HEK293T-RTP1A1/RTP2 cells were maintained in minimal essential medium (EMEM, Lonza) containing 10% fetal bovine serum (M10). These cells were generated by transfecting HEK293T (Thermofisher Scientific, cat ref: R70007) with an expression vector containing the sequences of the chaperone proteins RTP1A1 and RTP2 and a resistance gene to puromycin, using Lipofectamine 2000. The recombinant cell population, used in these experiments, was selected by adding 10 μg/ml of puromycin into the culture medium and subsequently subcloned (WO 2014/191047 A1).
Potential OR7C1 agonists were diluted at a concentration of 1 mole/liter (M) into an organic solvent such as Dimethyl Sulfoxide (DMSO) or Ethanol to generate stock solutions. […]
For concentration-response analysis, serial dilutions of the tested molecules were prepared from stock solutions in EMEM plated into 96-well plates.
For the dose-response analysis, a Luciferase-based gene reporter assay (Promega, Leiden, the Netherlands) was used. Briefly, cells were platted on poly-D-lysine-coated 96-well plates and transfected with a plasmid containing the CRE-luciferase and a plasmid containing the olfactory receptor. Sixteen hours after transfection, the culture medium was replaced by serum-free EMEM containing the tested compounds at a determined concentration. After four hours of incubation at 37° C., cells were lysed and processed for luminescence measurement. Luminescence emission was recorded. Results were expressed as luciferase activity ([…] (RLU)) or as percentage of the response induced by 10 μM of the adenylate cyclase activator Forskolin. An empty plasmid is used as negative control.
Dose-response analyses using the luciferase-based reporter assay were performed using semi-logarithmic serial dilutions of the compounds, from 1 mM to 316 nM, on OR7C1. 46 compounds were tested in concentration-response analyses. In each experiment, an empty vector (pEFIBRHO) was used as negative control. Values are given as the negative logarithm of the EC50 in Moles.

Row | Compound | EC50 [µM] | -LogEC50 (average n > 3)
1 | 2-(2,2,7,7-Tetramethyl-5-tricyclo[6.2.1.01,6]undec-4-enyl)butan-1-ol [Compound 28] | – | 6.6
2 | 5-(1-Methoxybutan-2-yl)-2,2,7,7-tetramethyltricyclo[6.2.1.01,6]undec-5-ene [Compound 29] | – | 5.2
3 | CCCC(O)COC1C(C)CCCC1(C)C (mixture of isomers) [Compound 14, 1-((2,2,6-trimethylcyclohexyl)oxy)pentan-2-ol] | 126 | –
4 | CCC(O)COC1C(C)CCCC1(C)C (mixture of isomers) [Compound 15, 1-((2,2,6-trimethylcyclohexyl)oxy)butan-2-ol] | 126 | –
5 | CC1(C)/C(=C\CO)C2CCC1C2 (racemic) [Compound 8, DL-Patchenol] | 31.6 | –
6 | CCCC(O)CCC1C(C)CCCC1(C)C (centres unmarked) [Compound 1, Norlimbanol] | 3.98 | –
7 | CCC(O)COC1CCCCC1C(C)(C)C (centres unmarked) [Compound 2, Ambercore] | 12.6 | –
8 | CCC12CCC3C(C)(C)CCCC3(C)C1COC2 (centres unmarked) [Compound 3, Grisalva] | 25.1 | –
9 | CCCC(O)COC1C2(C)CCC(C2)C1(C)C (centres unmarked) [Compound 5, 1-((1,3,3-trimethylbicyclo[2.2.1]heptan-2-yl)oxy)pentan-2-ol] | 50.1 | –
10 | CCCC(=O)COC1C2(C)CCC(C2)C1(C)C (centres unmarked) [Compound 6, 1-((1,3,3-trimethylbicyclo[2.2.1]heptan-2-yl)oxy)pentan-2-one] | 50.1 | –
11 | CCC(O)COC1C2(C)CCC(C2)C1(C)C (centres unmarked) [Compound 7, 1-((1,3,3-trimethylbicyclo[2.2.1]heptan-2-yl)oxy)butan-2-ol] | 50.1 | –
12 | CC(C)[C@H]1OCC[C@]2(CC3CC[C@]2(C)C3(C)C)O1 [Compound 9, Belambre] | 1.58 | –
13 | CC1OC[C@H](C)C2(CC3CCC2(C)C3(C)C)O1 (stereo partly drawn) [Compound 10, 1′,2,5(S),7′,7′-Pentamethyl-spiro[1,3-dioxane-4,2′-bicyclo[2.2.1]heptane]] | 2.51 | –
14 | CC1OCC(C)C2(CC3CCC2(C)C3(C)C)O1 (centres unmarked) [Compound 11, 1′,2,5,7′,7′-Pentamethylspiro[1,3-dioxane-4,2′-bicyclo[2.2.1]heptane]] | 2 | –
15 | CC1CCC2C(C2(C)C)C12COC(C)(C)OC2 (centres unmarked) [Compound 12, Spirambrene] | 12.6 | –
16 | CC(C)[C@]12C[C@@H]3OC(C)(C)O[C@]3(C)[C@H](C1)C(C)(C)C2 [Compound 13, 2,4,4,10,10-Pentamethyl-8-propan-2-yl-3,5-dioxatricyclo[6.2.1.02,6]undecane] | 0.398 | –
17 | CC1(C)CCC[C@]2(C)[C@H]3CCO[C@]3(C)CC[C@@H]12 [Compound 18, Ambroxan or (−)-Ambroxide] | 31.6 | –
18 | CC(=O)OCC1CCC(C)(C)C23CC4C[C@H]2C13C4(C)C (some centres unmarked) [Compound 19, Amboryl acetate] | 63.1 | –
19 | Hydroxyambran [Compound 41] | – | 5.5

Continued, in another order:

Row | EC50 [µM] | Compound | -LogEC50 (average n > 3)
20 | 12.6 | CCC1OC2CC(C)(C)[C@@]34CC[C@@H](C3)C(C)(C)C4C2O1 (stereo in doubt) [Compound 20, 6-Ethyl-2,2,10,10-tetramethyl-5,7-dioxatetracyclo[9.2.1.01,9.04,8]tetradecane] | –
21 | 5.01 | CC1OC2CC(C)(C)[C@@]34CC[C@@H](C3)C(C)(C)C4C2O1 (stereo in doubt) [Compound 23, 2,2,6,10,10-Pentamethyl-5,7-dioxatetracyclo[9.2.1.01,9.04,8]tetradecane] | –
22 | 10 | CC1(C)C2C3OCOC3CC(C)(C)[C@]23CC[C@H]1C3 (stereo in doubt) [Compound 24, 2,2,10,10-Tetramethyl-5,7-dioxatetracyclo[9.2.1.01,9.04,8]tetradecane] | –
23 | 2.51 | COC[C@@H](C)C1=C2C(C)(C)[C@H]3CC[C@@]2(C3)C(C)(C)CC1 (stereo in doubt) [Compound 26, 5-(1-Methoxypropan-2-yl)-2,2,7,7-tetramethyltricyclo[6.2.1.01,6]undec-5-ene] | –
24 | 50.1 | CC1(C)CCC[C@]2(C)C[C@]3(CCC12)CO3 (stereo in doubt) [Compound 38, 4,4,8a-Trimethylspiro[2,3,4a,5,6,8-hexahydro-1H-naphthalene-7,2′-oxirane]] | –
25 | 0.501 | CC(C=O)C1=C2C(C)(C)[C@H]3CC[C@@]2(C3)C(C)(C)CC1 (some centres unmarked) [Compound 21, 5-(1-Oxopropan-2-yl)isolongifol-5-ene] | –
26 | 1.58 | CC(O)C(C)C1=C2C(C)(C)[C@H]3CC[C@@]2(C3)C(C)(C)CC1 (some centres unmarked) [Compound 22, 5-(3-Hydroxybutan-2-yl)isolongifol-5-ene] | –
27 | 3.16 | CCC(CO)C1=C2C(C)(C)[C@H]3CC[C@@]2(C3)C(C)(C)CC1 (some centres unmarked) [Compound 27, 5-(1-Hydroxybutan-2-yl)isolongifol-5-ene] | –
28 | 2.51 | CCC(COC)C1=C2C(C)(C)[C@H]3CC[C@@]2(C3)C(C)(C)CC1 (some centres unmarked) [Compound 30, 5-(1-Methoxybutan-2-yl)isolongifol-5-ene] | –
29 | 3.98 | CCC(COC)C1=CCC(C)(C)[C@@]23CC[C@@H](C2)C(C)(C)C13 (some centres unmarked) [Compound 31, 5-(1-methoxybutan-2-yl)isolongifol-4-ene] | –
30 | 20 | CC1(C)C2C(=O)CCC(C)(C)[C@]23CC[C@H]1C3 (stereo partly drawn) [Compound 32, (1S,8S)-2,2,7,7-Tetramethyltricyclo[6.2.1.01,6]undecan-5-one] | –
31 | 25.1 | CC(=O)C1(C)CC2=C(CCCC2(C)C)CC1C (centres unmarked) [Compound 34, Sylvamber] | –
32 | 31.6 | CC1O[C@@]12CC[C@H]1C(C)(C)CCC[C@]1(C)[C@H]2C (some centres unmarked) [Compound 35, 3′,4,4,8,8a-Pentamethylspiro[2,3,4a,5,6,8-hexahydro-1H-naphthalene-7,2′-oxirane]] | –
33 | 20 | CC1O[C@@]12CC[C@H]1C(C)(C)CCC[C@]1(C)C2 (some centres unmarked) [Compound 36, 3′,4,4,8a-Tetramethylspiro[2,3,4a,5,6,8-hexahydro-1H-naphthalene-7,2′-oxirane]] | –
34 | 501 | C[C@H]1[C@]2(CCC3C(C)(C)CCC[C@@]31C)CO2 (some centres unmarked) [Compound 37, 4,4,8,8a-Tetramethylspiro[2,3,4a,5,6,8-hexahydro-1H-naphthalene-7,2′-oxirane]] | –
35 | 1.58 | CC(CO)C1CCC(C)(C)[C@@]23CC[C@@H](C2)C(C)(C)C13 (some centres unmarked) [Compound 39, 5-(1-Hydroxypropan-2-yl)isolongifolane] | –
36 | 50.1 | CCOCOC1CCCCCCCCCCC1 [Compound 40, Boisambrene] | –
37 | 20 | CC(=O)C1CC/C(C)=C\CC/C(C)=C\C/C=C\1C (centres unmarked) [Compound 42, Cyclisone/Trimofix] | –
38 | 2 | CC1(C)C/C=C\CC/C=C\CCC2OC21C (centres unmarked) [Compound 43, Cedroxyde] | –
39 | 7.94 | C/C1=C/CCC2(C)OC2CC/C(C)=C\CC1 (centres unmarked) [Compound 44, (E)-woody epoxide] | –
40 | 20 | C[C@]12CCC(=O)C[C@@H]1CC[C@@H]1[C@@H]2CC[C@]2(C)C=CC[C@@H]12 [Compound 45, 5α-Androst-16-en-3-one] | –
41 | 12.6 | C[C@@]12C=CCC1C1CC=C3C[C@@H](O)CC[C@]3(C)C1CC2 (some centres unmarked) [Compound 46, Androstadienol] | –
